Like-named read-outs stand apart in the source and are kept apart here.
Columns and labels:
mV1 K831A = mV1 K831A (Mus musculus, UniProt Q704Y3, K831A); test: Agonist activation, patch clamp, HEK293T; assay type: cell-based; conditions: read-out: EC50_Capsaicin
mV1_648 (ANAP) = mV1_648 (ANAP) (Mus musculus, UniProt Q704Y3, L648X); test: Agonist activation of ANAP-incorporated channel, patch clamp; assay type: cell-based
rTRPV1 = test system: rTRPV1; parameters: method as in Sanchez-Moreno et al; conditions: 4 μM capsaicin, ref Sanchez-Moreno et al; cited from earlier work
mV1 CΔ10 (Phe830-Lys839) = mV1 CΔ10 (Phe830-Lys839) (Mus musculus, UniProt Q704Y3); test: Agonist activation, patch clamp, HEK293T; assay type: cell-based; conditions: read-out: EC50_Capsaicin
Chain of mV1 CΔ10 (Phe830-Lys839) (Q704Y3 1-829, stated change not applied): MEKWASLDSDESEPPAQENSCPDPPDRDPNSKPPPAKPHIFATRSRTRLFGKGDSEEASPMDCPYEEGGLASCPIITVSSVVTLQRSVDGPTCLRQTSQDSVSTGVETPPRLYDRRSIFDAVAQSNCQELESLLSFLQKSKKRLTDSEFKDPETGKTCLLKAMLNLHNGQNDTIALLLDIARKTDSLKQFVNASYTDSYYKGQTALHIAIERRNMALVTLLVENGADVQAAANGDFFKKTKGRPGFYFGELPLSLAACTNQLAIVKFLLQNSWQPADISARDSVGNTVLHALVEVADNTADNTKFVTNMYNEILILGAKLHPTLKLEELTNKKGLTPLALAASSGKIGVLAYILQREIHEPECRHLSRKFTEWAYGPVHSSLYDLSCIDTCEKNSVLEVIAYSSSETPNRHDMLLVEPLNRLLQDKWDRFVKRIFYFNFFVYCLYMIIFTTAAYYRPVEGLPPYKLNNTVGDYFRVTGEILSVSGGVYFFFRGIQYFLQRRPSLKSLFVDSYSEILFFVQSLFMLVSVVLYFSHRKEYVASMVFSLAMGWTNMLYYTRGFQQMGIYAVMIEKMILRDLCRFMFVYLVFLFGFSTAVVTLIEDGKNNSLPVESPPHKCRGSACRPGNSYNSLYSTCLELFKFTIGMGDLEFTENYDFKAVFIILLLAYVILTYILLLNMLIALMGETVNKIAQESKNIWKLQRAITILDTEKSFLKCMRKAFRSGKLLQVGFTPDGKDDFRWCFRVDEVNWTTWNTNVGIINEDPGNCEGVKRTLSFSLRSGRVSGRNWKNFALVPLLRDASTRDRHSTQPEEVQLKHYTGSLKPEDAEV

mV1 S833A = mV1 S833A (Mus musculus, UniProt Q704Y3, S833A); test: Agonist activation, patch clamp, HEK293T; assay type: cell-based; conditions: read-out: EC50_Capsaicin
Chain of mV1 S833A (Q704Y3 whole entry S833A): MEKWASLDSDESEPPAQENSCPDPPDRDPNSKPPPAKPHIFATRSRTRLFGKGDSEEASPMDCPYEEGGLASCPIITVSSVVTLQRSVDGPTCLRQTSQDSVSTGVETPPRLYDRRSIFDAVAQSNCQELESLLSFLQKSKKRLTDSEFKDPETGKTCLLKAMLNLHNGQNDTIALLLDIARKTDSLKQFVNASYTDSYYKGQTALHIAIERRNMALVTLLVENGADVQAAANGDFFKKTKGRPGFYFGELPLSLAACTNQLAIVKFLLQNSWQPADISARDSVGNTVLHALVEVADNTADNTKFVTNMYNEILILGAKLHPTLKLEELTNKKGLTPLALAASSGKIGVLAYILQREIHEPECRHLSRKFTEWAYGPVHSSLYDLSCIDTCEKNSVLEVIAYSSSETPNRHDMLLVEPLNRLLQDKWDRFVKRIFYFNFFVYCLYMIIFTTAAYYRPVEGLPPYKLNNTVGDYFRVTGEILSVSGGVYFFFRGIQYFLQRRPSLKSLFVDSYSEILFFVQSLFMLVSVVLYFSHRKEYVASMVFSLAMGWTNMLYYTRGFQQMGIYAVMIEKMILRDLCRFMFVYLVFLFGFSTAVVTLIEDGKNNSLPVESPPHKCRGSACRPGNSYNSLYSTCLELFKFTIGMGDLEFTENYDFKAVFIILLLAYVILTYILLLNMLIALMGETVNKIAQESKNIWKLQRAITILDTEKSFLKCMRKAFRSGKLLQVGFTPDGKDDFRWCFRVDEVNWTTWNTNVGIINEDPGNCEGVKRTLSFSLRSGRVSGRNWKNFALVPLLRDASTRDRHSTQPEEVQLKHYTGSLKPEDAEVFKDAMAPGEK

mouse TRPV1 (mV1) = mouse TRPV1 (mV1) (Mus musculus, UniProt Q704Y3); conditions: cited from earlier work
Chain of mouse TRPV1 (mV1) (Q704Y3 whole entry): as the sequence (Q704Y3 whole entry S833A) above, with A833S counted along it
Description: The heat activation threshold of pV1, at ~35 °C, is slightly higher than the body core temperature of platypus (32 °C)[17],[18] (Fig. 1b, c), again reminiscent of ot ...

mV1_630 (ANAP) = mV1_630 (ANAP) (Mus musculus, UniProt Q704Y3, S630X); test: Agonist activation of ANAP-incorporated channel, patch clamp; assay type: cell-based
mV1 S116A = mV1 S116A (Mus musculus, UniProt Q704Y3, S117A); test: Agonist activation, patch clamp, HEK293T; assay type: cell-based; conditions: read-out: EC50_Capsaicin
Chain of mV1 S116A (Q704Y3 whole entry S117A): as the sequence (Q704Y3 whole entry S833A) above, with S117A, A833S counted along it

mV1 D832A = mV1 D832A (Mus musculus, UniProt Q704Y3, D832A); test: Agonist activation, patch clamp, HEK293T; assay type: cell-based; conditions: read-out: EC50_Capsaicin
Chain of mV1 D832A (Q704Y3 whole entry D832A): as the sequence (Q704Y3 whole entry S833A) above, with D832A, A833S counted along it

mV1_241 (ANAP) = mV1_241 (ANAP) (Mus musculus, UniProt Q704Y3, K241X); test: Agonist activation of ANAP-incorporated channel, patch clamp; assay type: cell-based
mV1 E838A = mV1 E838A (Mus musculus, UniProt Q704Y3, E838A); test: Agonist activation, patch clamp, HEK293T; assay type: cell-based; conditions: read-out: EC50_Capsaicin
Chain of mV1 E838A (Q704Y3 whole entry E838A): as the sequence (Q704Y3 whole entry S833A) above, with A833S, E838A counted along it

mV1_579 (ANAP) = mV1_579 (ANAP) (Mus musculus, UniProt Q704Y3, C579X); test: Agonist activation of ANAP-incorporated channel, patch clamp; assay type: cell-based
pV1_241 (ANAP) = pV1_241 (ANAP) (Ornithorhynchus anatinus, UniProt F7A7B4); test: as above; assay type: cell-based, platypus
Chain of pV1_241 (ANAP) (F7A7B4 1-842): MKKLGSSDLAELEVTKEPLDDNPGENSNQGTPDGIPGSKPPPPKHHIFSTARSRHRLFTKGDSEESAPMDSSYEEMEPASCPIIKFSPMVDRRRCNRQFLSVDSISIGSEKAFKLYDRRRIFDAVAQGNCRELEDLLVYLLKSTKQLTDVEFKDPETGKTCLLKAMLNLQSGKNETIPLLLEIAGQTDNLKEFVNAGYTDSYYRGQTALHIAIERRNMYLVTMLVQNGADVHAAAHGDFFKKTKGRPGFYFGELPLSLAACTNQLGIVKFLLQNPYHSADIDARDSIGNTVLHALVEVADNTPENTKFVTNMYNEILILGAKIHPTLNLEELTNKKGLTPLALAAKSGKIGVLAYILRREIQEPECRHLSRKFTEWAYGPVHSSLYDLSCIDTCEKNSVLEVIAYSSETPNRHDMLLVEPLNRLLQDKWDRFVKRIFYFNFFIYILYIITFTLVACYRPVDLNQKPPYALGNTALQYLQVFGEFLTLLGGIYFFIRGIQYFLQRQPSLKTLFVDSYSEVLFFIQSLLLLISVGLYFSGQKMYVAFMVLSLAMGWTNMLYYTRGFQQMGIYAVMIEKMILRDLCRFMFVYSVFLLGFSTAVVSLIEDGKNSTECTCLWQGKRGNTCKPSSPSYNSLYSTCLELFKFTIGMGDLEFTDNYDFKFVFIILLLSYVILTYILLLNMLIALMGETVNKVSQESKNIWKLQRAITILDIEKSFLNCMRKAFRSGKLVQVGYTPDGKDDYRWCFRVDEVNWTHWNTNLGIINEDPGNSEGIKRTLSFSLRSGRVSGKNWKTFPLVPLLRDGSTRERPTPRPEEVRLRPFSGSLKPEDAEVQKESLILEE

pV1_mN chimera = pV1_mN chimera (Ornithorhynchus anatinus, UniProt F7A7B4); test: Agonist activation, patch clamp, HEK293T; assay type: cell-based, platypus / mouse; conditions: read-out: EC50_Capsaicin
mV1 K839A = mV1 K839A (Mus musculus, UniProt Q704Y3, K839A); test: Agonist activation, patch clamp, HEK293T; assay type: cell-based; conditions: read-out: EC50_Capsaicin
Chain of mV1 K839A (Q704Y3 whole entry K839A): as the sequence (Q704Y3 whole entry S833A) above, with A833S, K839A counted along it

mV1_654 (ANAP) = mV1_654 (ANAP) (Mus musculus, UniProt Q704Y3, Y654X); test: Agonist activation of ANAP-incorporated channel, patch clamp; assay type: cell-based
[1] = test system: DRG neurons of p-trpv1 mice; test: Patch clamp of DRG neurons of p-trpv1 mice; assay type: cell-based, mouse; conditions: small diameter DRG neurons, patch clamping
Description: All recordings were performed at room temperature.
DRG neurons were acutely dissociated and maintained in a short-term primary culture according to procedures. Briefly, after mice were killed by CO2 inhalation and decapitated, vertebral column was opened by a dorsal approach. DRG neurons were collected using fine forceps from both sides of the spinal column and transferred into DMEM medium (GIBCO), and the spinal nerves were cut off using fine ophthalmological scissors and digested by […] (m/m, Sigma) for 20 min. Following the wash of collagenase and trypsin, DRG neurons were incubated at 37 °C in 5% CO2. Cells were used for electrophysiological experiments within the next 24 h.

pV1_mNC chimera = pV1_mNC chimera (Ornithorhynchus anatinus, UniProt F7A7B4); test: Agonist activation, patch clamp, HEK293T; assay type: cell-based, platypus / mouse; conditions: read-out: EC50_Capsaicin
Chain of pV1_mNC chimera (F7A7B4 436-691, change not shown): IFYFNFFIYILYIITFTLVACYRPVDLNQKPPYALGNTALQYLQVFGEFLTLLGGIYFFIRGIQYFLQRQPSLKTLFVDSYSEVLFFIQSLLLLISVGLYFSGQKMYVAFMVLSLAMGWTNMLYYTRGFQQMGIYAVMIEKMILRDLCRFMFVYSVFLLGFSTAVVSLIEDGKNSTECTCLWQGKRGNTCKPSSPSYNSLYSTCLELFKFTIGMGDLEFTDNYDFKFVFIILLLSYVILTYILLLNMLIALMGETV
Chain of pV1_mNC chimera (Q704Y3 with tags, fused parts or gaps partner): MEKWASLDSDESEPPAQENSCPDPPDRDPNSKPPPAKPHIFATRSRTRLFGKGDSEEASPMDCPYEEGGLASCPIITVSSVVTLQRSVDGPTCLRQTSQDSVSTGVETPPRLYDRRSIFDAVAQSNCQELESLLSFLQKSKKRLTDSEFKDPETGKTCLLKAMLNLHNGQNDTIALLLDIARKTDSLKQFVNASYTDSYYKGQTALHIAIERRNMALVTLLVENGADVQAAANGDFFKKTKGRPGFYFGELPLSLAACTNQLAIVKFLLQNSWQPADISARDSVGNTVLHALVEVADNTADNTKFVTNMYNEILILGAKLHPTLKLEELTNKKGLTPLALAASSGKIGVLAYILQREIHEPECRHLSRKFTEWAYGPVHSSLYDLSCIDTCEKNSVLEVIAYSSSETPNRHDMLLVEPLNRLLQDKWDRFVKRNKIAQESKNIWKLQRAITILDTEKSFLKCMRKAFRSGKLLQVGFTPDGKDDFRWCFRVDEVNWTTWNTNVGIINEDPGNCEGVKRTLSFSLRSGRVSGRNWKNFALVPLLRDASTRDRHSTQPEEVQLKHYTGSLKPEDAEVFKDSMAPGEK
Chain of pV1_mNC chimera (Q704Y3 with tags, fused parts or gaps partner): as above

platypus TRPV1 (pV1) = platypus TRPV1 (pV1) (Ornithorhynchus anatinus, UniProt F7A7B4); test: Agonist activation, patch clamp, HEK293T; assay type: cell-based; conditions: for EC50_Capsaicin: Supp Table 1 data
Chain of platypus TRPV1 (pV1) (F7A7B4 1-842): as the sequence (F7A7B4 1-842) above

Chain of mV1 K831A (Q704Y3 whole entry K831A): as the sequence (Q704Y3 whole entry S833A) above, with K831A, A833S counted along it

COc1cc(CNC(=O)CCCC/C=C/C(C)C)ccc1O [Capsaicin, capsaicin]
EC50 (mV1 K831A; mean ± s.e.m., n = 3): 354 nM
EC50 (mV1 K831A; replicate 1): 417 nM
EC50 (mV1 K831A; replicate 2): 355 nM
EC50 (mV1 K831A; replicate 3): 290 nM
EC50 (mV1_648 (ANAP)): 296 nM
EC50_Capsaicin (mV1_648 (ANAP); replicate 1): 301 nM
EC50_Capsaicin (mV1_648 (ANAP); replicate 2): 286 nM
EC50_Capsaicin (mV1_648 (ANAP); replicate 3): 312 nM
EC50_Capsaicin (mV1_648 (ANAP); replicate 5): 289 nM
capsaicin sensitivity of heat-desensitized rTRPV1 (rTRPV1): insensitive
EC50 (mV1 CΔ10 (Phe830-Lys839); mean ± s.e.m., n = 6): 354 nM
EC50 (mV1 CΔ10 (Phe830-Lys839); replicate 1): 215 nM
EC50 (mV1 CΔ10 (Phe830-Lys839); replicate 3): 313 nM
EC50 (mV1 CΔ10 (Phe830-Lys839); replicate 4): 407 nM
EC50 (mV1 CΔ10 (Phe830-Lys839); replicate 5): 457 nM
EC50 (mV1 CΔ10 (Phe830-Lys839); replicate 6): 463 nM
EC50 (mV1 S833A; mean ± s.e.m., n = 3): 344 nM
EC50 (mV1 S833A; replicate 1): 361 nM
EC50 (mV1 S833A; replicate 2): 282 nM
EC50 (mV1 S833A; replicate 3): 389 nM
capsaicin sensitivity of heat-desensitized channels (mouse TRPV1 (mV1)): less sensitive
EC50 (mV1_630 (ANAP)): 299 nM
EC50_Capsaicin (mV1_630 (ANAP); replicate 1): 325 nM
EC50_Capsaicin (mV1_630 (ANAP); replicate 2): 289 nM
EC50_Capsaicin (mV1_630 (ANAP); replicate 3): 310 nM
EC50_Capsaicin (mV1_630 (ANAP); replicate 4): 272 nM
EC50 (mV1 S116A; mean ± s.e.m., n = 3): 186 nM
EC50 (mV1 S116A; replicate 1): 191 nM
EC50 (mV1 S116A; replicate 2): 161 nM
EC50 (mV1 S116A; replicate 3): 206 nM
EC50 (mV1 D832A; mean ± s.e.m., n = 3): 361 nM
EC50 (mV1 D832A; replicate 1): 372 nM
EC50 (mV1 D832A; replicate 2): 282 nM
EC50 (mV1 D832A; replicate 3): 429 nM
EC50 (mV1_241 (ANAP)): 290 nM
EC50_Capsaicin (mV1_241 (ANAP); replicate 1): 256 nM
EC50_Capsaicin (mV1_241 (ANAP); replicate 2): 283 nM
EC50_Capsaicin (mV1_241 (ANAP); replicate 3): 296 nM
EC50_Capsaicin (mV1_241 (ANAP); replicate 4): 299 nM
EC50_Capsaicin (mV1_241 (ANAP); replicate 5): 316 nM
EC50 (mV1 E838A; mean ± s.e.m., n = 3): 565 nM
EC50 (mV1 E838A; replicate 1): 660 nM
EC50 (mV1 E838A; replicate 2): 597 nM
EC50 (mV1 E838A; replicate 3): 438 nM
EC50 (mV1_579 (ANAP)): 293 nM
EC50_Capsaicin (mV1_579 (ANAP); replicate 2): 297 nM
EC50_Capsaicin (pV1_241 (ANAP); replicate 3): 288 nM
EC50_Capsaicin (pV1_241 (ANAP); replicate 5): 322 nM
EC50_Capsaicin (pV1_241 (ANAP); replicate 6): 342 nM
EC50 (pV1_mN chimera; mean ± s.e.m., n = 6): 313 nM
EC50 (pV1_mN chimera; replicate 2): 294 nM
EC50 (pV1_mN chimera; replicate 3): 360 nM
EC50 (pV1_mN chimera; replicate 5): 279 nM
EC50 (mV1 K839A; mean ± s.e.m., n = 3): 293 nM
EC50 (mV1 K839A; replicate 1): 268 nM
EC50 (mV1 K839A; replicate 2): 292 nM
EC50 (mV1_654 (ANAP)): 304 nM
EC50_Capsaicin (mV1_654 (ANAP); replicate 1): 324 nM
EC50_Capsaicin (mV1_654 (ANAP); replicate 2): 298 nM
EC50_Capsaicin (mV1_654 (ANAP); replicate 3): 284 nM
EC50_Capsaicin (mV1_654 (ANAP); replicate 4): 310 nM
EC50_Capsaicin (mV1_654 (ANAP); replicate 5): 267 nM
EC50_Capsaicin (mV1_654 (ANAP); replicate 6): 341 nM
response to capsaicin [1]: well maintained
EC50 (pV1_mNC chimera; mean ± s.e.m., n = 6): 306 nM
EC50 (pV1_mNC chimera; replicate 3): 300 nM
EC50 (pV1_mNC chimera; replicate 4): 276 nM
EC50_Capsaicin (platypus TRPV1 (pV1); replicate 1): 367 nM
EC50_Capsaicin (platypus TRPV1 (pV1); replicate 2): 246 nM
EC50_Capsaicin (platypus TRPV1 (pV1); replicate 4): 271 nM
EC50_Capsaicin (platypus TRPV1 (pV1); replicate 5): 368 nM
activation of pV1 by capsaicin (platypus TRPV1 (pV1); whole-cell, 10 μM): currents elicited
